For series [1], the system named is Banded crickets. In words: Direct spray insecticides against banded crickets. The format is in vivo. As to conditions: 0.75 gallons per acre. How it is done:
The Test Arenas were used to contain the test systems during the test substance applications.
Post-Treatment Arenas: 20 oz. SOLO cups with mesh lids were used as post-treatment arenas. A potato cutting was added as a food source. Clean post-treatment arenas were used to contain the test systems after exposure to the test substances.
Application Equipment: A compressed air sprayer with a flat fan nozzle, pressurized to 20 PSI was used to make applications.
(§1) The test substances were shaken and then mixed at a rate of 5.324 mL of concentrate per 200 ml of water.
The diluted test substances were adequately shaken prior to applications. A track spraying jig was used to make a linear application. A single cartridge containing 10 test systems was placed in the middle of the spray path. […] This equated to a treatment rate of 0.75 gallons per acre.
The observations were made by raising the test arenas and gently blowing air on the test systems to provoke movement, lightly prodding the test systems, or the test arenas were shaken/agitated to provoke test system movement.
The test systems were transferred from the Treatment Arenas into the clean Post-Treatment Arenas 1 hour after the applications.

A further series relates to E. coli. In words: E. coli growth inhibition, essential oil comparison in the non-essential oil fraction (CFU count). It counts as cell-based, Escherichia coli. As to conditions: oils in non-essential oil fraction. How it is done:
(§2) Escherichia coli was grown in the presence of each component or combinations to determine the inhibitory potential. […] The appropriate amount of each component was added to 5 mL of LB media, and each culture was inoculated with 50 μL of a 12 hour old culture of E. coli. The cultures were grown for 12 hours at 37° C. with shaking at 225 rpm before being serial diluted and plated onto solid LB agar plates (5 μL per plate) in triplicate. Plates were incubated for 24 hours at 37° C., and then colonies were counted to determine the inhibitory potential.
Combinations of essential oils, each at the concentration indicated in Example 1, were assayed for their inhibitory potential in a similar manner as Example 1.
The essential oils were then tested in the non-essential oil fraction for synergy. […] Also, there was increasing antimicrobial action of the essential oils related to the combination of the oils leading to the highest activity found in the Essential Oil-Ark product.

Series [2] concerns Candida albicans ATCC 10231. Nature of the series: Inhibition assay of essential oils and pairings in base solution, log reduction and synergy. As to conditions: log reduction of pairing divided by that of the pure oil named. The format is cell-based.
Series [3] concerns Banded crickets. Nature of the series: Residual insecticides against banded crickets (surfaces aged 7 DAT). As to conditions: 0.75 gallons per acre. It counts as in vivo. On the procedure:
Post-Treatment Arenas: 20 oz. […] A potato cutting was added as a food source. Clean post-treatment arenas were used to contain the test systems after exposure to the test substances.
as §1
The diluted test substances were adequately shaken prior to applications. A track spraying jig was used to make a linear application. […] This equated to a treatment rate of 0.75 gallons per acre.

In series [4] the test system is Pseudomonas aeruginosa ATCC 9027. Nature of the series: Inhibition assay of essential oils and pairings in base solution, log reduction and synergy. The format is cell-based. As to conditions: pairing Clove + Geraniol; log reduction of pairing divided by that of the pure oil named.
The test system of a further series is Escherichia coli. In words: E. coli growth inhibition by individual components and combinations (CFU count). The format is cell-based. As to conditions: for CFUs / CFUs/mL: CFU after 24 hours; for reduction of growth of E. coli (in words): component alone. How it is done:
as §2

3 compounds from patent publication US20240358025A1, “INSECT, BACTERIAL, AND/OR FUNGAL CONTROL COMPOSITION” (priority 2021, published 2024) can be followed below.

SMILES strings stand for the structures.

As to `CC(C)=CCC/C(C)=C/CO` [Geraniol], in the series with Banded crickets [1], the “efficacy as a direct kill insecticide (in words)” value is listed as “did not provide high levels of mortality”. Moreover, the “Average Percent Mortality” value with Banded crickets [1] (2 DAT) is listed as 33%; with Banded crickets [3] (surface aged 7 DAT, 3 DAT) it was 10%. The Avg with E. coli (CFU after 24 hours) is given as 43.333. Moreover, the figures for the CFUs in the series with E. coli (CFU after 24 hours) and in the series on Escherichia coli were 43333 CFUs and 2 CFUs, respectively. Besides, the CFUs/mL was found to be 866660 CFUs/mL with E. coli (CFU after 24 hours) and 40 CFUs/mL in the series with Escherichia coli. The “antimicrobial activity (in words)” value in the series with E. coli is “highest activity of the essential oils”. The Synergistic advantage is listed as 120.9% in series [2] (pairing Geraniol + Garlic); 103.9% in series [2] (pairing Geraniol + Peppermint); 103.9% in series [2] (pairing Geraniol + Rosemary); 103.9% in series [2] (pairing Geraniol + Thyme); 106.3% in series [4]. Also, in the series on Banded crickets [3] (up to 7 days after treatment), the “efficacy as a residual insecticide (in words)” value is “did not provide high levels of mortality”.
Turning to `CCCCCCCCCCCCCCCCCC(=O)OCC(O)CO` (stereo not drawn) [Glyceryl Monostearate], in the series on Escherichia coli, the CFUs is 8330000 CFUs, the CFUs/mL is recorded as 166600000 CFUs/mL and the “reduction of growth of E. coli (in words)” value is listed as “did not substantially reduce growth of E. coli”.
The corresponding values for `C/C=C/C=C/C(=O)[O-].[K+]` [Potassium Sorbate] are 13000000 CFUs, 260000000 CFUs/mL and “did not substantially reduce growth of E. coli”.
